pIC50: −log10 of the molar value. Structures can show the parent of a compound that is named as a salt. Where two headings read alike, the source gives them in different places.

For 34 compounds, IC50 results are on record in patent US9549932B2, “2-(morpholin-4-yl)-1,7-naphthyridines” (BAYER PHARMA AKTIENGESELLSCHAFT, priority 2014, dated 2017).

In this assay the target is full-length human ATR protein (Homo sapiens (Human), UniProt Q13535). Kind of assay: Binding assay ATR (TR-FRET tracer displacement). To be noted: TR-FRET. An outline of the steps: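 Full-length human GST-ATR co-purified with ATRIP, pre-complexed 30 min at 22 °C with anti-GST-Tb antibody, then pre-bound with compound 10 min. Tracer A or B added (2 µl of 100 nM solution), 30 min at 22 °C.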
Chain of full-length human ATR protein (Q13535 other isoform, or with tags, fused parts or gaps): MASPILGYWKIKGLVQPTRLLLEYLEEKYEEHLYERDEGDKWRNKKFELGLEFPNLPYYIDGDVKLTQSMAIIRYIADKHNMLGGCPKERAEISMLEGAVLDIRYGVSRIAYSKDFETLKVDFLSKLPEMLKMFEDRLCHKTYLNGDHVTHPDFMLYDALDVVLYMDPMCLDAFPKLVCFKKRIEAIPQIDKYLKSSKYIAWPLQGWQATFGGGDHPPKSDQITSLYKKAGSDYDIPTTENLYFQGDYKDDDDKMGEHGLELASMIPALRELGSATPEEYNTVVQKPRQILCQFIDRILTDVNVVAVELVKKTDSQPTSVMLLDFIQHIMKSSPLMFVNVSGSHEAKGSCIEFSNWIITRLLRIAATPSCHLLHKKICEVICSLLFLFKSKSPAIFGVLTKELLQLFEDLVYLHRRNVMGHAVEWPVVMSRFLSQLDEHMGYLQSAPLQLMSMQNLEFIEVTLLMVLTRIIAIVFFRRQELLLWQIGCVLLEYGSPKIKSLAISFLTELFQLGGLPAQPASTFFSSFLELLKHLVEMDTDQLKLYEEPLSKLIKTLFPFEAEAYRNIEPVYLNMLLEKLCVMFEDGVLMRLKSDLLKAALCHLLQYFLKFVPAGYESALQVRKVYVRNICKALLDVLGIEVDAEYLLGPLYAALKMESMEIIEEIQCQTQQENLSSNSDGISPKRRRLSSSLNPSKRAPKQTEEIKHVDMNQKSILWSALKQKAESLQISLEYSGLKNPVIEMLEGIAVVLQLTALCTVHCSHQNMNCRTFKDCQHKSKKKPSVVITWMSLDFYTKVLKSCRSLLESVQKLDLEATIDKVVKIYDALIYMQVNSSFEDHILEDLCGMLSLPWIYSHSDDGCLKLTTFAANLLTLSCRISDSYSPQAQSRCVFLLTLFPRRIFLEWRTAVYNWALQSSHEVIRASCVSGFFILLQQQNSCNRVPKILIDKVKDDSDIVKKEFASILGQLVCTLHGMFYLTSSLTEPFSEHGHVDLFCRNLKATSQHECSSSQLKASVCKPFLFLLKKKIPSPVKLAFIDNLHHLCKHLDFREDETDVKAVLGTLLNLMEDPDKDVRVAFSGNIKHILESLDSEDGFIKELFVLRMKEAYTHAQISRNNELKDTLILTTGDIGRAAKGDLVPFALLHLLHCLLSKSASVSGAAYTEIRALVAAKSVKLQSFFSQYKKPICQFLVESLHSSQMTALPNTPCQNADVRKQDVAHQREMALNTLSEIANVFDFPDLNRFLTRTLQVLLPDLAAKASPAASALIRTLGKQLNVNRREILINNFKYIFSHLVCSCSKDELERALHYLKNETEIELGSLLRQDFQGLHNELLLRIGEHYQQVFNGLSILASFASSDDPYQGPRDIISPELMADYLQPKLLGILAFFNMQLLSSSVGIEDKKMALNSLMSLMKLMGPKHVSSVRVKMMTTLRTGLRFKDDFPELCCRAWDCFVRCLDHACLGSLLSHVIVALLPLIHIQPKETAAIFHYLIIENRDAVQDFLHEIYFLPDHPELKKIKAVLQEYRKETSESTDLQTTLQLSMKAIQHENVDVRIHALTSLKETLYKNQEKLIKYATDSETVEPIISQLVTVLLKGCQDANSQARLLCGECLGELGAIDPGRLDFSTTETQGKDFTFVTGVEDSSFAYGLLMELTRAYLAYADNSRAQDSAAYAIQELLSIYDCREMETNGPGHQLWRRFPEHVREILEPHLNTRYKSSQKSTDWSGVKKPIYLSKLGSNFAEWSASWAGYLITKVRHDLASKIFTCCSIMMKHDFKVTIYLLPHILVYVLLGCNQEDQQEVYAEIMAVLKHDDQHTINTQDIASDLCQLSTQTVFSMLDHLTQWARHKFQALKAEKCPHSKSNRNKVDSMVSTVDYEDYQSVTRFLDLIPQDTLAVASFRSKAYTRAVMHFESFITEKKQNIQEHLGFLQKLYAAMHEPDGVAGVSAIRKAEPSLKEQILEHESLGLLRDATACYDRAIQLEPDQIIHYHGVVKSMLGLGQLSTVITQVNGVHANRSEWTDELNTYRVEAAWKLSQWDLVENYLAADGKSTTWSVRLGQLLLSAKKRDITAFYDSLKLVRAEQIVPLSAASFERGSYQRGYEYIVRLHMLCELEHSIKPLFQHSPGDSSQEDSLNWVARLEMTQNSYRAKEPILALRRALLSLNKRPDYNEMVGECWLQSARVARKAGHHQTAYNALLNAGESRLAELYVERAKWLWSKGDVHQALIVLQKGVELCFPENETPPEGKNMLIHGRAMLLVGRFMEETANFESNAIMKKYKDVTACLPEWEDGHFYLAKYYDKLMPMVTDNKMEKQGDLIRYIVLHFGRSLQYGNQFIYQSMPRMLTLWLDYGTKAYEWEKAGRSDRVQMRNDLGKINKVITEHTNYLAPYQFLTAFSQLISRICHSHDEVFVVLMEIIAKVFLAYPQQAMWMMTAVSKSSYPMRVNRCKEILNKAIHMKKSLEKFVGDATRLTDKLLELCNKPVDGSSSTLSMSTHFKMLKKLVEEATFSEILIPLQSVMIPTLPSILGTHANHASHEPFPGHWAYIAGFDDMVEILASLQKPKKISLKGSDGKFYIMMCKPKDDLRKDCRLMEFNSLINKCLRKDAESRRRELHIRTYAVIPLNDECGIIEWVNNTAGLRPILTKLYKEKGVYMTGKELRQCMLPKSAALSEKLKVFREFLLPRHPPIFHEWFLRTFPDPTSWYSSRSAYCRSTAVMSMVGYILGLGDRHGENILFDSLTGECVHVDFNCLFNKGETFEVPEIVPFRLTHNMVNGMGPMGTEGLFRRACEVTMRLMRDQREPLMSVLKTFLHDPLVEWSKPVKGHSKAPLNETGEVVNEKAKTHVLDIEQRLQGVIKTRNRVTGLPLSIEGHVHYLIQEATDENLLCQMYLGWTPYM
Chain of full-length human ATR protein (Q8WXE1 other isoform, or with tags, fused parts or gaps partner): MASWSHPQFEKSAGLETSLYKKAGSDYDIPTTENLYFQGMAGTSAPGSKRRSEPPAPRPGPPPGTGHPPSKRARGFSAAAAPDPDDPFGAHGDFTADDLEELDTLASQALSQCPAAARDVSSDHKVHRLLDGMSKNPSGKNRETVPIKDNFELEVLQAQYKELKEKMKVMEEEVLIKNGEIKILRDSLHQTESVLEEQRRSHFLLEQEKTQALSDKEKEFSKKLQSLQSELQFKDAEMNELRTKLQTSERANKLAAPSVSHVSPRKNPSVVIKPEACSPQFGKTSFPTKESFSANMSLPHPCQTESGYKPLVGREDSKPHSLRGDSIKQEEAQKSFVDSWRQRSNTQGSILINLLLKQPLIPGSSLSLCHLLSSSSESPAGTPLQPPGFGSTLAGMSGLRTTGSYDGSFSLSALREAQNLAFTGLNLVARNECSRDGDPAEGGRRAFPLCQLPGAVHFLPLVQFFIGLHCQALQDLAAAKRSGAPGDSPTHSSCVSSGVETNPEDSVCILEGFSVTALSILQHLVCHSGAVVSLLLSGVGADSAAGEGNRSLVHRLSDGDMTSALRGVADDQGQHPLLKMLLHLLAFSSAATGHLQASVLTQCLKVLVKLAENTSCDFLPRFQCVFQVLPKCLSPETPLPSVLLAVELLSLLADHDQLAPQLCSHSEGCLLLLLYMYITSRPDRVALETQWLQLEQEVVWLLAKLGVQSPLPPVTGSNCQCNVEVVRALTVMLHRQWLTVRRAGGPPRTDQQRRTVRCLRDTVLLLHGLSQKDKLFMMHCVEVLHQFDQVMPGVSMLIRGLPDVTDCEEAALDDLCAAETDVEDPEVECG
(Time-resolved FRET reads energy transfer from a long-lived donor to a nearby acceptor.)

The mark [1] stands for this setting: tracer A, read-out: ATR binding (tracer A) IC50.
Where [2] appears, read: tracer B, read-out: ATR binding (tracer B) IC50.

On to `O=S1(=Nc2cc(N3CCOCC3)nc3c(-c4ccn[nH]4)nccc23)CCCCC1` [Example 280, N-[2-(morpholin-4-yl)-8-(1H-pyrazol-5-yl)-1,7-naphthyridin-4-yl]hexahydro-1λ^4-thiopyran-1-imine 1-oxide], for which the pIC50 under setting [1] is 7.33.
Consider `C[C@@H]1COCCN1c1cc(OCCCCNC(=O)OC(C)(C)C)c2ccnc(-c3ccn[nH]3)c2n1` [Example 52, Tert-butyl [4-({2-[(3R)-3-methylmorpholin-4-yl]-8-(1H-pyrazol-5-yl)-1,7-naphthyridin-4-yl}oxy)butyl]carbamate], for which the pIC50 runs as follows: under setting [1], 7.00; under setting [2], 7.10.
`Fc1ccc(-c2cc(N3CCOCC3)nc3c(-c4ccn[nH]4)nccc23)c(F)n1` [Example 366, 4-(2,6-difluoropyridin-3-yl)-2-(morpholin-4-yl)-8-(1H-pyrazol-5-yl)-1,7-naphthyridine]: under setting [1], the pIC50 was 7.28.
Still for that read-out and setting: next, `Cc1ccnc(F)c1-c1cc(N2CCOC[C@H]2C)nc2c(-c3ccn[nH]3)nccc12` [Example 90, 4-(2-fluoro-4-methylpyridin-3-yl)-2-[(3R)-3-methylmorpholin-4-yl]-8-(1H-pyrazol-5-yl)-1,7-naphthyridine]: 7.97.
Consider `CC(C)S(=O)(=O)c1ccc(-c2cc(N3CCOC[C@H]3C)nc3c(-c4ccn[nH]4)nccc23)cc1` [Example 151, 4-[4-(isopropylsulfonyl)phenyl]-2-[(3R)-3-methylmorpholin-4-yl]-8-(1H-pyrazol-5-yl)-1,7-naphthyridine], for which the negative-log IC50 (pIC50) is, setting by setting: under setting [1], 7.29; under setting [2], 7.63.
Consider `C[C@@H]1COCCN1c1cc(-c2cn(C)nc2C(F)(F)F)c2ccnc(-c3ccn[nH]3)c2n1` [Example 259, 2-[(3R)-3-methylmorpholin-4-yl]-4-[1-methyl-3-(trifluoromethyl)-1H-pyrazol-4-yl]-8-(1H-pyrazol-5-yl)-1,7-naphthyridine], for which, under setting [1], the negative logarithm of the IC50 (pIC50) was 7.77.
With `CS(=O)(=O)c1ccc(-c2cc(N3CCOCC3)nc3c(-c4cc[nH]n4)nccc23)cc1` [Example 7, 4-(4-methanesulphonylphenyl)-2-(morpholin-4-yl)-8-(1H-pyrazol-3-yl)-[1,7]naphthyridine], the pIC50 reads like this: under setting [1], 7.23; under setting [2], 7.58.
Taken in the same sequence, the figures for `CS(=O)(=O)c1ccc(-c2cc(N3CCOCC3)nc3c(-c4ccn[nH]4)nccc23)cn1` [Example 3, 4-[6-(methylsulfonyl)pyridin-3-yl]-2-(morpholin-4-yl)-8-(1H-pyrazol-5-yl)-1,7-naphthyridine] were 7.24 and 7.41.
`c1cc(-c2nccc3c(N4CCn5ccnc5C4)cc(N4CCOCC4)nc23)[nH]n1` [Example 169, 4-(5,6-dihydroimidazo[1,2-a]pyrazin-7(8H)-yl)-2-(morpholin-4-yl)-8-(1H-pyrazol-5-yl)-1,7-naphthyridine]: the pIC50 under setting [1] is 6.94.
The same measure, in the same setting: the figure for `CCCn1nccc1-c1cc(N2CCOC[C@H]2C)nc2c(-c3ccn[nH]3)nccc12` [Example 117, 2-[(3R)-3-methylmorpholin-4-yl]-4-(1-propyl-1H-pyrazol-5-yl)-8-(1H-pyrazol-5-yl)-1,7-naphthyridine] is 8.09; for `Cc1ccc(-c2cc(N3CCOCC3)nc3c(-c4ccn[nH]4)nccc23)cn1` [Example 388, 4-(6-methylpyridin-3-yl)-2-(morpholin-4-yl)-8-(1H-pyrazol-5-yl)-1,7-naphthyridine] it is 7.10.
Same read-out and setting: the figure for `CCn1cnc(-c2cc(N3CCOC[C@H]3C)nc3c(-c4ccn[nH]4)nccc23)c1` [Example 153, 4-(1-ethyl-1H-imidazol-4-yl)-2-[(3R)-3-methylmorpholin-4-yl]-8-(1H-pyrazol-5-yl)-1,7-naphthyridine] is 7.26.
In the case of `Cc1cc(N2CCOCC2)nc2c(-c3cc[nH]n3)nccc12` [Example 20, 4-methyl-2-(morpholin-4-yl)-8-(1H-pyrazol-3-yl)-[1,7]naphthyridine hydrochloride], the pIC50 under setting [1] was 6.09 and the negative-log IC50 (pIC50) under setting [2] is 6.49.
Take `Cc1cc(-c2cc(N3CCOC[C@H]3C)nc3c(-c4ccn[nH]4)nccc23)c(C)n1C` [Example 264, 2-[(3R)-3-methylmorpholin-4-yl]-8-(1H-pyrazol-5-yl)-4-(1,2,5-trimethyl-1H-pyrrol-3-yl)-1,7-naphthyridine]: the pIC50 under setting [1] is 7.59.
On to `CS(=O)(=O)c1nc(-c2cc(N3CCOCC3)nc3c(-c4ccn[nH]4)nccc23)cs1` [Example 21, 4-[2-(methylsulfonyl)-1,3-thiazol-4-yl]-2-(morpholin-4-yl)-8-(1H-pyrazol-5-yl)-1,7-naphthyridine], for which the pIC50 under setting [1] was 6.72.
The same measure, in the same setting: next, `C[C@@H]1COCCN1c1cc(-c2ncco2)c2ccnc(-c3ccn[nH]3)c2n1` [Example 270, 2-[(3R)-3-methylmorpholin-4-yl]-4-(1,3-oxazol-2-yl)-8-(1H-pyrazol-5-yl)-1,7-naphthyridine]: 7.47; `Cc1cc(-c2cc(N3CCOC[C@H]3C)nc3c(-c4ccn[nH]4)nccc23)cnc1C` [Example 232, 4-(5,6-dimethylpyridin-3-yl)-2-[(3R)-3-methylmorpholin-4-yl]-8-(1H-pyrazol-5-yl)-1,7-naphthyridine]: 7.41; `CC(C)n1ccc(-c2cc(N3CCOC[C@H]3C)nc3c(-c4ccn[nH]4)nccc23)n1` [Example 263, 2-[(3R)-3-methylmorpholin-4-yl]-4-[1-(propan-2-yl)-1H-pyrazol-3-yl]-8-(1H-pyrazol-5-yl)-1,7-naphthyridine]: 7.71.
On the same count and under the same terms, next, `C[C@@H]1COCCN1c1cc(-c2ccc(F)cc2F)c2ccnc(-c3ccn[nH]3)c2n1` [Example 123, 4-(2,4-difluorophenyl)-2-[(3R)-3-methylmorpholin-4-yl]-8-(1H-pyrazol-5-yl)-1,7-naphthyridine]: 7.67; `Cc1ccc(C)c(-c2cc(N3CCOCC3)nc3c(-c4ccn[nH]4)nccc23)c1` [Example 334, 4-(2,5-dimethylphenyl)-2-(morpholin-4-yl)-8-(1H-pyrazol-5-yl)-1,7-naphthyridine]: 7.24.
For `C[C@@H]1COCCN1c1cc(C2(O)CCCCC2)c2ccnc(-c3ccn[nH]3)c2n1` [Example 189, 1-{2-[(3R)-3-methylmorpholin-4-yl]-8-(1H-pyrazol-5-yl)-1,7-naphthyridin-4-yl}cyclohexanol], under setting [1], the pIC50 is 7.67.
For `CSc1cc(N2CCOC[C@H]2C)nc2c(-c3ccn[nH]3)nccc12` [Example 63, 2-[(3R)-3-methylmorpholin-4-yl]-4-(methylsulfanyl)-8-(1H-pyrazol-5-yl)-1,7-naphthyridine], the pIC50 by setting is: under setting [1], 7.09; under setting [2], 7.51.
For the compound `Cc1ccc2c(c1)cc(-c1cc(N3CCOCC3)nc3c(-c4ccn[nH]4)nccc13)n2C(=O)OC(C)(C)C` [Example 377, tert-butyl 5-methyl-2-[2-(morpholin-4-yl)-8-(1H-pyrazol-5-yl)-1,7-naphthyridin-4-yl]-1H-indole-1-carboxylate], the pIC50 under setting [1] is 5.52.
Take `c1ccc(-c2cc(N3CCOCC3)nc3c(-c4cc[nH]n4)nccc23)cc1` [Example 11, 2-(morpholin-4-yl)-4-phenyl-8-(1H-pyrazol-3-yl)-[1,7]naphthyridine]: the negative logarithm of the IC50 (pIC50) by setting is: under setting [1], 6.87; under setting [2], 7.06.
Consider `CC(=O)Nc1cccc(-c2cc(N3CCOCC3)nc3c(-c4ccn[nH]4)nccc23)c1` [Example 305, N-{3-[2-(morpholin-4-yl)-8-(1H-pyrazol-5-yl)-1,7-naphthyridin-4-yl]phenyl}acetamide], for which the pIC50 under setting [1] is 6.88.
On the same count and under the same terms, next, `CCS(=O)(=O)c1cc(N2CCOCC2)nc2c(-c3ccn[nH]3)nccc12` [Example 200, 4-(ethylsulfonyl)-2-(morpholin-4-yl)-8-(1H-pyrazol-5-yl)-1,7-naphthyridine]: 7.06; `CC(C)[S+]([O-])c1cc(N2CCOCC2)nc2c(-c3ccn[nH]3)nccc12` (stereo not drawn) [Example 196, 2-(morpholin-4-yl)-4-[propan-2-ylsulfinyl]-8-(1H-pyrazol-5-yl)-1,7-naphthyridine]: 7.14; `O=C1CN(c2cc(N3CCOCC3)nc3c(-c4ccn[nH]4)nccc23)CCN1` [Example 176, 4-[2-(morpholin-4-yl)-8-(1H-pyrazol-5-yl)-1,7-naphthyridin-4-yl]piperazin-2-one]: 6.65.
In the case of `CC(C)COP(C)(=O)c1cc(N2CCOC[C@H]2C)nc2c(-c3ccn[nH]3)nccc12` (stereo partly drawn) [Example 127, Isobutyl methyl{2-[(3R)-3-methylmorpholin-4-yl]-8-(1H-pyrazol-5-yl)-1,7-naphthyridin-4-yl}phosphinate], the negative-log IC50 (pIC50) under setting [1] was 7.59.
Regarding `COc1cc(N2CCOCC2)nc2c(-c3cc[nH]n3)nccc12` [Example 44, 4-methoxy-2-(morpholin-4-yl)-8-(1H-pyrazol-3-yl)-[1,7]naphthyridine], the pIC50 under setting [1] is 6.27 and the pIC50 under setting [2] was 6.49.
Regarding `COc1ccncc1-c1cc(N2CCOCC2)nc2c(-c3ccn[nH]3)nccc12` [Example 375, 4-(4-methoxypyridin-3-yl)-2-(morpholin-4-yl)-8-(1H-pyrazol-5-yl)-1,7-naphthyridine], the pIC50 under setting [1] was 6.05.
Same read-out and setting: the figure for `Cc1ncccc1-c1cc(N2CCOC[C@H]2C)nc2c(-c3ccn[nH]3)nccc12` [Example 218, 2-[(3R)-3-methylmorpholin-4-yl]-4-(2-methylpyridin-3-yl)-8-(1H-pyrazol-5-yl)-1,7-naphthyridine] is 7.93; for `C[C@@H]1COCCN1c1cc(C2CC[S+]([O-])CC2)c2ccnc(-c3ccn[nH]3)c2n1` (stereo partly drawn) [Example 203, 2-[(3R)-3-methylmorpholin-4-yl]-4-[1-oxidotetrahydro-2H-thiopyran-4-yl]-8-(1H-pyrazol-5-yl)-1,7-naphthyridine] it is 7.95; for `Nc1cccc(-c2cc(N3CCOCC3)nc3c(-c4ccn[nH]4)nccc23)c1` [Example 335, 3-[2-(morpholin-4-yl)-8-(1H-pyrazol-5-yl)-1,7-naphthyridin-4-yl]aniline] it is 7.18.

In general, pIC50 refers to the IC50 on a negative log10 scale, so that one unit is a factor of ten.
